Experimental findings from patent US20240343733A1, “COMPOUNDS FOR TARGETING DEGRADATION OF IRAK4 PROTEINS” (BIOGEN MA INC., priority 2021, published 2024) are described below.

Bounds are passed on as bounds.

In the test the target is T1, IRAK4 (Homo sapiens, UniProt Q9NWZ3).
T1 construct: 293Tcells expressing HiBiT-tagged IRAK4 were then added into 384-well plates
T1 sequence (Q9NWZ3 1-460): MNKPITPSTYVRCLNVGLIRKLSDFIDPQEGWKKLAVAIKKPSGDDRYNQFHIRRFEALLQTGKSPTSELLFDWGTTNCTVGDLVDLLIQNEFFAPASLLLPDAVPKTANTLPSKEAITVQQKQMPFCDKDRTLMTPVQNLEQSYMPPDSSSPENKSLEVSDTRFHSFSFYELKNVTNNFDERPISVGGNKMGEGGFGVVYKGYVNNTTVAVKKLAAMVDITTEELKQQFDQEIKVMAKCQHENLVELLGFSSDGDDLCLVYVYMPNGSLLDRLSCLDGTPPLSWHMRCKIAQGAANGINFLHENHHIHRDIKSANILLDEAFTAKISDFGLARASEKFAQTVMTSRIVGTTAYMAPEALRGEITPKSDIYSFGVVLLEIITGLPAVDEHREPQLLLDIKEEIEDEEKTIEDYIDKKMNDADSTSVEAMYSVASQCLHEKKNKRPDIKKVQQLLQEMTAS
The test can be described thus: IRAK4 Degradation Assay, HiBiT Method. It is filed as cell-based. The note with it: 293T cells expressing HiBiT-tagged IRAK4, 6 hours. Summed up: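 293T cells with HiBiT knocked in at the C-terminus of endogenous IRAK4, 10,000 per well, treated 6 h at 37 °C with an 11-point half-log series ([…]), in duplicate. Remaining IRAK4 read by Nano-Glo HiBiT lytic luminescence against DMSO-only and media-only controls.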
On to `CC(C)Oc1cc2nc([C@H]3CC[C@H](CN4CCC(c5ccc6c(c5)n(C)c(=O)n6C5CCC(=O)NC5=O)C(F)(F)C4)CC3)cn2cc1C(=O)Nc1cccn([C@H]2C[C@H]2F)c1=O` (stereo partly drawn) [Example 168, 2-((1r,4S)-4-((4-(1-(2,6-dioxopiperidin-3-yl)-3-methyl-2-oxo-2,3-dihydro-1H-benzo[d]imidazol-5-yl)-3,3-difluoropiperidin-1-yl)methyl)cyclohexyl)-N-(1-((1S,2R)-2-fluorocyclopropyl)-2-oxo-1,2-dihydropyridin-3-yl)-7-isopropoxyimidazo[1,2-a]pyridine-6-carboxamide], for which the DC50 (in general, the midpoint of the concentration-degradation curve) was 10 to 100 nM.

Compound `CC(C)Oc1cc2nc([C@H]3CC[C@H](CN4CCC(c5cc6c(cc5F)c(N5CCC(=O)NC5=O)nn6C)C(F)(F)C4)CC3)cn2cc1C(=O)Nc1cnn2cccnc12` (stereo partly shown) [Example 170, 2-((1r,4r)-4-((4-(3-(2,4-dioxotetrahydropyrimidin-1(2H)-yl)-5-fluoro-1-methyl-1H-indazol-6-yl)-3,3-difluoropiperidin-1-yl)methyl)cyclohexyl)-7-isopropoxy-N-(pyrazolo[1,5-a]pyrimidin-3-yl)imidazo[1,2-a]pyridine-6-carboxamide] showed a DC50 of 10 to 100 nM. With `CC(C)Oc1cc2nc([C@H]3CC[C@H](CN4CC[C@H](c5ccc6c(N7CCC(=O)NC7=O)nn(C)c6c5)[C@H](O)C4)CC3)cn2cc1C(=O)Nc1cccn([C@H]2C[C@H]2F)c1=O` [Example 171, 2-((1S,4S)-4-(((3S,4R)-4-(3-(2,4-dioxotetrahydropyrimidin-1(2H)-yl)-1-methyl-1H-indazol-6-yl)-3-hydroxypiperidin-1-yl)methyl)cyclohexyl)-N-(1-((1S,2R)-2-fluorocyclopropyl)-2-oxo-1,2-dihydropyridin-3-yl)-7-isopropoxyimidazo[1,2-a]pyridine-6-carboxamide] the figure was under 10 nM; with `CC(C)Oc1cc2nc([C@H]3CC[C@H](CN4CCC(c5cc6c(cc5F)c(N5CCC(=O)NC5=O)nn6C)C(F)(F)C4)CC3)cn2cc1C(=O)Nc1cccn([C@H]2C[C@H]2F)c1=O` (stereo partly shown) [Example 172, 2-((1r, 4S)-4-((4-(3-(2,4-dioxotetrahydropyrimidin-1 (2H)-yl)-5-fluoro-1-methyl-1H-indazol-6-yl)-3,3-difluoropiperidin-1-yl)methyl)cyclohexyl)-N-(1-((1 S, 2R)-2-fluorocyclopropyl)-2-oxo-1,2-dihydropyridin-3-yl)-7-isopropoxyimidazo[1,2-a]pyridine-6-carboxamide], 10 to 100 nM. For `CC(C)Oc1cc2nc([C@H]3CC[C@H](CN4CCC(c5ccc6c(c5)oc(=O)n6C5CCC(=O)NC5=O)CC4)CC3)cn2cc1C(=O)Nc1cnn2cccnc12` (stereo partly shown) [Example 173, 2-((1r,4r)-4-((4-(3-(2,6-dioxopiperidin-3-yl)-2-oxo-2,3-dihydrobenzo[d]oxazol-6-yl)piperidin-1-yl)methyl)cyclohexyl)-7-isopropoxy-N-(pyrazolo[1,5-a]pyrimidin-3-yl)imidazo[1,2-a]pyridine-6-carboxamide], the half-maximal degradation concentration (DC50) was under 10 nM. With `CC(C)Oc1cc2nc([C@H]3CC[C@H](CN4CCC(c5ncc(NC6CCC(=O)NC6=O)cc5F)CC4)CC3)cn2cc1C(=O)Nc1cccn(C2CC2)c1=O` (stereo partly shown) [Example 174, N-(1-cyclopropyl-2-oxo-1,2-dihydropyridin-3-yl)-2-((1r,4r)-4-((4-(5-((2,6-dioxopiperidin-3-yl)amino)-3-fluoropyridin-2-yl)piperidin-1-yl)methyl)cyclohexyl)-7-isopropoxyimidazo[1,2-a]pyridine-6-carboxamide] the figure was 10 to 100 nM; with `CC(C)Oc1cc2nc([C@H]3CC[C@H](CN4CCC(c5ccc6c(c5)oc(=O)n6C5CCC(=O)NC5=O)CC4)CC3)cn2cc1C(=O)Nc1cccn([C@H]2C[C@H]2F)c1=O` (stereo partly drawn) [Example 175, 2-((1r,4S)-4-((4-(3-(2,6-dioxopiperidin-3-yl)-2-oxo-2,3-dihydrobenzo[d]oxazol-6-yl)piperidin-1-yl)methyl)cyclohexyl)-N-(1-((1S,2R)-2-fluorocyclopropyl)-2-oxo-1,2-dihydropyridin-3-yl)-7-isopropoxyimidazo[1,2-a]pyridine-6-carboxamide], under 10 nM; with `CC(C)Oc1cc2nc([C@H]3CC[C@H](CNCC4(O)CCN(c5ncc(C6CCC(=O)NC6=O)cc5F)CC4)CC3)cn2cc1C(=O)Nc1cnn2cccnc12` (stereo partly shown) [Example 176], under 10 nM. With `CC(C)Oc1cc2nc([C@H]3CC[C@H](CN4CC[C@H](c5ccc6c(N7CCC(=O)NC7=O)nn(C)c6c5)[C@H](O)C4)CC3)cn2cc1C(=O)Nc1cnn2cccnc12` [Example 177, 2-((1S,4r)-4-(((3S,4R)-4-(3-(2,4-dioxotetrahydropyrimidin-1(2H)-yl)-1-methyl-1H-indazol-6-yl)-3-hydroxypiperidin-1-yl)methyl)cyclohexyl)-7-isopropoxy-N-(pyrazolo[1,5-a]pyrimidin-3-yl)imidazo[1,2-a]pyridine-6-carboxamide] the figure was under 10 nM; with `CC(C)Oc1cc2nc([C@H]3CC[C@H](CN4CC[C@H](c5ccc6c(N7CCC(=O)NC7=O)nn(C)c6c5)[C@H](O)C4)CC3)cn2cc1C(=O)Nc1cccn(C2CC2)c1=O` [Example 178, N-(1-cyclopropyl-2-oxo-1,2-dihydropyridin-3-yl)-2-((S,4r)-4-(((3S,4R)-4-(3-(2,4-dioxotetrahydropyrimidin-1(2H)-yl)-1-methyl-1H-indazol-6-yl)-3-hydroxypiperidin-1-yl)methyl)cyclohexyl)-7-isopropoxyimidazo[1,2-a]pyridine-6-carboxamide], under 10 nM.

In turn, `CC(C)Oc1cc2nc([C@H]3CC[C@H](CN4CC5(CCN(c6ncc(N7CCC(=O)NC7=O)cc6F)CC5)C4)CC3)cn2cc1C(=O)Nc1cccn([C@H]2C[C@H]2F)c1=O` [Example 179, 2-((1r,4S)-4-((7-(5-(2,4-dioxotetrahydropyrimidin-1(2H)-yl)-3-fluoropyridin-2-yl)-2,7-diazaspiro[3.5]nonan-2-yl)methyl)cyclohexyl)-N-(1-((1S,2R)-2-fluorocyclopropyl)-2-oxo-1,2-dihydropyridin-3-yl)-7-isopropoxyimidazo[1,2-a]pyridine-6-carboxamide] showed a DC50 of under 10 nM. The compound `CC(C)Oc1cc2nc([C@H]3CC[C@H](CN4CCN(c5ccc(C6CCC(=O)NC6=O)cn5)CC4)CC3)cn2cc1C(=O)Nc1cccn([C@H]2C[C@H]2F)c1=O` (stereo partly drawn) [Example 180, 2-((1r,4S)-4-((4-(5-(2,6-dioxopiperidin-3-yl)pyridin-2-yl)piperazin-1-yl)methyl)cyclohexyl)-N-(1-((1S,2R)-2-fluorocyclopropyl)-2-oxo-1,2-dihydropyridin-3-yl)-7-isopropoxyimidazo[1,2-a]pyridine-6-carboxamide] returned a DC50 of 10 to 100 nM. With `CC(C)Oc1cc2nc([C@H]3CC[C@H](CN4CC5(CCN(c6ncc(N7CCC(=O)NC7=O)cc6F)CC5)C4)CC3)cn2cc1C(=O)Nc1cnn2cccnc12` [Example 181, 2-((1r,4r)-4-((7-(5-(2,4-dioxotetrahydropyrimidin-1(2H)-yl)-3-fluoropyridin-2-yl)-2,7-diazaspiro[3.5]nonan-2-yl)methyl)cyclohexyl)-7-isopropoxy-N-(pyrazolo[1,5-a]pyrimidin-3-yl)imidazo[1,2-a]pyridine-6-carboxamide] the figure was under 10 nM; with `CC(C)Oc1cc2nc([C@H]3CC[C@H](C(=O)NC4CCN(c5ccc(C6CCC(=O)NC6=O)cn5)CC4)CC3)cn2cc1C(=O)Nc1cnn2cccnc12` (stereo partly shown) [Example 182, 2-((1r,4r)-4-((1-(5-(2,6-dioxopiperidin-3-yl)pyridin-2-yl)piperidin-4-yl)carbamoyl)cyclohexyl)-7-isopropoxy-N-(pyrazolo[1,5-a]pyrimidin-3-yl)imidazo[,2-a]pyridine-6-carboxamide], under 10 nM. With `CC(C)Oc1cc2nc(C3CCN(C(=O)CC4CC5(C4)CN(c4ccc(C6CCC(=O)NC6=O)cn4)C5)CC3)cn2cc1C(=O)Nc1cccn([C@H]2C[C@H]2F)c1=O` (stereo partly drawn) [Example 183, 2-(1-(2-(2-(5-(2,6-dioxopiperidin-3-yl)pyridin-2-yl)-2-azaspiro[3.3]heptan-6-yl)acetyl)piperidin-4-yl)-N-(1-((1S,2R)-2-fluorocyclopropyl)-2-oxo-1,2-dihydropyridin-3-yl)-7-isopropoxyimidazo[1,2-a]pyridine-6-carboxamide], the 50% degradation concentration (DC50) was under 10 nM. For `CC(C)Oc1cc2nn([C@H]3CC[C@H](CN4CC[C@H](c5cc6c(cc5F)c(N5CCC(=O)NC5=O)nn6C)[C@H](O)C4)CC3)cc2cc1C(=O)Nc1cccn([C@H]2C[C@H]2F)c1=O` [Example 184, 2-((1S,4S)-4-(((3S,4R)-4-(3-(2,4-dioxotetrahydropyrimidin-1(2H)-yl)-5-fluoro-1-methyl-1H-indazol-6-yl)-3-hydroxypiperidin-1-yl)methyl)cyclohexyl)-N-(1-((1S,2R)-2-fluorocyclopropyl)-2-oxo-1,2-dihydropyridin-3-yl)-6-isopropoxy-2H-indazole-5-carboxamide], the half-maximal degradation concentration (DC50) is under 10 nM.
